{"source": "patent US8178506B2", "about": "“Oligomeric compounds and compositions for use in modulation of small non-coding RNAs” (Regulus Therapeutics Inc., priority 2003, dated 2012)", "key": {"PEPCK-c": {"system": "PEPCK-c", "assay": "PEPCK-c mRNA expression in HepG2 cells", "type": "cell-based, human", "details": "for PEPCKc mRNA: Experiment 1, basal (no insulin), four hours, UTC = 100; for reduction of PEPCK-c mRNA expression: HepG2, 1 nM insulin; for reduction of PEPCK-c mRNA expression / decrease in PEPCK-c mRNA: 100 nM; for decrease in PEPCK-c mRNA: HepG2, basal (no insulin)", "method": "(§1) Approximately 28 hours after transfection, the cells are subjected to serum starvation for a period of 12 to 16 hours, using serum-free growth medium. Following serum starvation, cells are treated with 1 nM insulin (insulin-treated) or are left untreated (basal conditions) for approximately four hours. At the same time, untreated control cells in both plates are treated with 100 nM insulin to determine the maximal insulin response. Following insulin treatment (forty-eight hours after transfection), total RNA is harvested from all samples, and the amount of total RNA from each sample is determined using a Ribogreen assay (Invitrogen Corporation, Carlsbad, Calif.). Real-time PCR is performed on the total RNA samples using primer/probe sets for three insulin responsive genes: insulin-like growth factor binding protein-1 (IGFBP-1), cytosolic PEPCK (PEPCK-C), and follistatin. Gene expression levels obtained by real-time PCR are normalized for total RNA content in the samples.\n(§2) Oligomeric compounds of the present invention were tested for their effects on insulin signaling in HepG2 cells. HepG2 cells were plated at 7500 cells/well in collagen coated 96-well plates. The following day, cells were transfected with oligomeric compounds targeting miRNAs using 100 nM oligomeric compound in LIPOFECTIN™ (Invitrogen Corporation, Carlsbad, Calif.) in two 96-well plates. The oligomeric compounds were tested in triplicate on each 96-well plate, except for positive and negative controls, which were measured up to six times per plate. At the end of transfection, the transfection medium was replaced by regular growth medium. Twenty-eight hours post-transfection, the cells were subjected to overnight (sixteen to eighteen hours) serum starvation using serum free growth medium. Forty-four hours post-transfection, the cells in the transfected wells were treated with either no insulin (“basal” Experiment 1, for identification of insulin-mimetic compounds) or with 1 nM insulin (“insulin treated” Experiment 2, for identification of insulin sensitizers) for four hours. At the same time, in both plates, cells in some of the un-transfected control wells are treated with 100 nM insulin to determine maximal insulin response. At the end of the insulin or no-insulin treatment (forty-eight hours post-transfection), total RNA is isolated from both the basal and insulin treated (1 nM) 96-well plates, and the amount of total RNA from each sample is determined using a Ribogreen assay (Molecular Probes, Eugene, Oreg.). Real-time PCR is performed on all the total RNA samples using primer/probe sets for three insulin responsive genes: PEPCK-c, IGFBP-1 and follistatin. Expression levels for each gene are normalized to total RNA, and values+standard deviation are expressed relative to the transfectant only untreated control (UTC) and negative control compounds.\n(§3) Protocols for treatment of HepG2 cells and transfection of oligomeric compounds are as described in Example 18. Also as described in Example 18, forty-four hours post-transfection, the cells in the transfected wells were treated with either no insulin (“basal” Experiment 3 (below), for identification of insulin-mimetic compounds) or with 1 nM insulin (“insulin treated” Experiment 4 (below), for identification of insulin sensitizers) for four hours. At the same time, in both plates, cells in some of the un-transfected control wells are treated with 100 nM insulin to determine maximal insulin response. At the end of the insulin or no-insulin treatment (forty-eight hours post-transfection), total RNA is isolated from both the basal and insulin treated (1 nM) 96-well plates, and the amount of total RNA from each sample is determined using a Ribogreen assay (Molecular Probes, Eugene, Oreg.)."}, "follistatin": {"system": "follistatin", "assay": "Follistatin mRNA expression in HepG2 cells", "type": "cell-based, human", "details": "for Follistatin mRNA: Experiment 1, basal (no insulin), four hours, UTC = 100", "method": "as §1, §2, §3"}, "IGFBP-1": {"system": "IGFBP-1", "assay": "IGFBP-1 mRNA expression in HepG2 cells", "type": "cell-based, human", "details": "for IGFBP1 mRNA: Experiment 1, basal (no insulin), four hours, UTC = 100", "method": "as §1, §2, §3"}, "adipocytes": {"system": "adipocytes", "assay": "Triglyceride accumulation assay in adipocytes", "type": "cell-based, human", "details": "differentiating adipocytes transfected with oligomeric compound; Table 75"}, "HSL": {"system": "HSL", "assay": "HSL mRNA expression in adipocytes (real-time PCR)", "type": "cell-based, human", "details": "differentiating adipocytes transfected with oligomeric compound; Table 75"}, "PPARγ": {"system": "PPARγ", "assay": "PPARγ mRNA expression in adipocytes (real-time PCR)", "type": "cell-based, human", "details": "differentiating adipocytes transfected with oligomeric compound; Table 75"}, "aP2": {"system": "aP2", "assay": "aP2 mRNA expression in adipocytes (real-time PCR)", "type": "cell-based, human", "details": "differentiating adipocytes transfected with oligomeric compound; Table 75"}, "Glut4": {"system": "Glut4", "assay": "Glut4 mRNA expression in adipocytes (real-time PCR)", "type": "cell-based, human", "details": "differentiating adipocytes transfected with oligomeric compound; Table 75"}, "[1]": {"system": "BJ, B16-F10, T47D, T47Dp53 and HeLa cells", "assay": "Cell cycle assay (propidium iodide flow cytometry), cell line panel", "type": "cell-based", "details": "150 nM, 72 hours (Table 29)"}, "[2]": {"details": "Experiment 2, insulin treated: HepG2 cells transfected with oligomeric compound, 1 nM insulin for four hours, UTC + 1 nM insulin = 100"}, "[3]": {"details": "Experiment 3, basal (no insulin), HepG2 cells, 48 hours post-transfection"}, "[4]": {"details": "Experiment 4, insulin-sensitization: HepG2 cells treated with 1 nM insulin for four hours, 48 h post-transfection, mRNA by real-time PCR"}}, "note": "In the oligonucleotide strings, read from the 5' end, every base follows the letter of its sugar. An asterisk marks phosphorothioate; unmarked linkages are phosphodiester. Other units and linkages are bracketed, terminal groups are in braces. A string of capitals states the bases alone. e = 2'-O-(2-methoxyethyl) (MOE); [5mC] = 5-methylcytosine; d = 2'-deoxy (DNA)"}
{"substance": "328776 (antisense eT*e[5mC]*e[5mC]*eT*eG*dT*dA*dA*dT*dT*dA*dT*dA*dG*dG*e[5mC]*eT*eA*eG*e[5mC]) [compound 328776]", "values": [{"measurement": "PEPCKc mRNA expression", "setting": "PEPCK-c; [2]", "result": 125}, {"measurement": "Follistatin mRNA expression", "setting": "follistatin; [2]", "result": 114}, {"measurement": "IGFBP1 mRNA expression", "setting": "IGFBP-1; [2]", "result": 86}]}
{"substance": "328779 (antisense eT*eG*eT*eT*eT*dG*dT*d[5mC]*dT*d[5mC]*d[5mC]*dA*dA*dG*dA*eA*eA*e[5mC]*eG*eT) [compound 328779]", "values": [{"measurement": "PEPCK-c (% UTC)", "setting": "PEPCK-c; [3]", "result": 123, "unit": "% UTC"}, {"measurement": "PEPCK-c (% UTC)", "setting": "PEPCK-c; [4]", "result": 78, "unit": "% UTC"}, {"measurement": "Follistatin (% UTC)", "setting": "follistatin; [3]", "result": 109, "unit": "% UTC"}, {"measurement": "Follistatin (% UTC)", "setting": "follistatin; [4]", "result": 119, "unit": "% UTC"}, {"measurement": "IGFBP-1 (% UTC)", "setting": "IGFBP-1; [3]", "result": 135, "unit": "% UTC"}, {"measurement": "IGFBP-1 (% UTC)", "setting": "IGFBP-1; [4]", "result": 128, "unit": "% UTC"}]}
{"substance": "340362 (antisense GACTGTTGAATCTCATGGCA; 5-10-5 gapmer, wing sugar and linkages not given here, further chemistry not given here) [compound 340362]", "values": [{"measurement": "PEPCK-c (% UTC)", "setting": "PEPCK-c; [3]", "result": 168, "unit": "% UTC"}, {"measurement": "PEPCK-c (% UTC)", "setting": "PEPCK-c; [4]", "result": 104, "unit": "% UTC"}, {"measurement": "Follistatin (% UTC)", "setting": "follistatin; [3]", "result": 123, "unit": "% UTC"}, {"measurement": "Follistatin (% UTC)", "setting": "follistatin; [4]", "result": 119, "unit": "% UTC"}, {"measurement": "IGFBP-1 (% UTC)", "setting": "IGFBP-1; [3]", "result": 157, "unit": "% UTC"}, {"measurement": "IGFBP-1 (% UTC)", "setting": "IGFBP-1; [4]", "result": 129, "unit": "% UTC"}]}
{"substance": "341801 (antisense CCUAUCUCCCCUCUGGACC; all 2'-MOE, all phosphorothioate, methylation of C and T or U not given here) [compound 341801]", "values": [{"measurement": "TG (triglyceride accumulation)", "setting": "adipocytes", "result": "65 percentage of untreated control (UTC)"}, {"measurement": "HSL mRNA", "setting": "HSL", "result": "89 percentage of untreated control (UTC)"}, {"measurement": "PEPCKc mRNA", "setting": "PEPCK-c; HepG2 cells", "result": 73}, {"measurement": "Follistatin mRNA", "setting": "follistatin; HepG2 cells", "result": 85}, {"measurement": "PPAR gamma mRNA", "setting": "PPARγ", "result": "82 percentage of untreated control (UTC)"}, {"measurement": "IGFBP1 mRNA", "setting": "IGFBP-1; HepG2 cells", "result": 99}, {"measurement": "aP2 mRNA", "setting": "aP2", "result": "90 percentage of untreated control (UTC)"}, {"measurement": "GLUT4 mRNA", "setting": "Glut4", "result": "77 percentage of untreated control (UTC)"}]}
{"substance": "341808 (antisense GAACUGCCUUUCUCUCCA; all 2'-MOE, all phosphorothioate, methylation of C and T or U not given here) [compound 341808]", "values": [{"measurement": "PEPCKc mRNA", "setting": "PEPCK-c; HepG2 cells", "result": 64}, {"measurement": "Follistatin mRNA", "setting": "follistatin; HepG2 cells", "result": 96}, {"measurement": "IGFBP1 mRNA", "setting": "IGFBP-1; HepG2 cells", "result": 113}]}
{"substance": "341813 (antisense AGACACGTGCACTGTAGA; all 2'-MOE, all phosphorothioate, methylation of C not given here) [compound 341813]", "values": [{"measurement": "PEPCK-c (% UTC)", "setting": "PEPCK-c; [3]", "result": 121, "unit": "% UTC"}, {"measurement": "PEPCK-c (% UTC)", "setting": "PEPCK-c; [4]", "result": 88, "unit": "% UTC"}, {"measurement": "Follistatin (% UTC)", "setting": "follistatin; [3]", "result": 100, "unit": "% UTC"}, {"measurement": "Follistatin (% UTC)", "setting": "follistatin; [4]", "result": 102, "unit": "% UTC"}, {"measurement": "IGFBP-1 (% UTC)", "setting": "IGFBP-1; [3]", "result": 137, "unit": "% UTC"}, {"measurement": "IGFBP-1 (% UTC)", "setting": "IGFBP-1; [4]", "result": 117, "unit": "% UTC"}]}
{"substance": "AGAAGGTGGGGAGCAGCGTCA (anti-miR; chemistry not fully specified) [ISIS 328115, uniform 2′-MOE PS; targets hypothetical miRNA-142]", "values": [{"measurement": "reduction of PEPCK-c mRNA expression", "setting": "PEPCK-c", "result": 41, "unit": "%"}]}
{"substance": "GCTACCTGCACTGTAAGCACTTTT (chemistry not given here) [ISIS 327911, uniform 2′-MOE PS; targets mir-106]", "values": [{"measurement": "percentage of cells in the G2/M phase", "setting": "[1]", "result": "increased percentage of cells in the G2/M phase"}, {"measurement": "decrease in PEPCK-c mRNA", "setting": "PEPCK-c", "result": 48, "unit": "%"}]}
{"substance": "ISIS 341804: SEQ ID NO: 761, targeting mir-94/mir-106b (antisense ATCTGCACTGTCAGCACTTT; all 2'-MOE, all phosphorothioate, methylation of C not given here)", "values": [{"measurement": "decrease in PEPCK-c mRNA", "setting": "PEPCK-c", "result": 56, "unit": "%"}]}
{"substance": "ISIS 341805: SEQ ID NO: 762, targeting mir-184 (antisense ACCCTTATCAGTTCTCCGTCCA; all 2'-MOE, all phosphorothioate, methylation of C not given here)", "values": [{"measurement": "decrease in PEPCK-c mRNA", "setting": "PEPCK-c", "result": 60, "unit": "%"}]}
{"substance": "TCAGTTTTGCATGGATTTGCACA (anti-miR; chemistry not fully specified) [ISIS 327922, uniform 2′-MOE PS; targets mir-19b-2]", "values": [{"measurement": "reduction of PEPCK-c mRNA expression", "setting": "PEPCK-c", "result": 24, "unit": "%"}, {"measurement": "decrease in PEPCK-c mRNA", "setting": "PEPCK-c", "result": 23, "unit": "%"}]}
